Experimental data: US8017135B1, “Lipid-drug conjugates for local therapy of eye diseases” (The Regents of the University of California, priority 2003, dated 2011)
Several values for one entry are separate records, joined by “and”; a condition that tells them apart may be missing. Equal values may be shown once. Entries after “also recorded” stand apart in the source; their conditions may differ.

Legend:
[1] = literature comparison; cited from earlier work
[2] = test system: HSV-1; experiment: HSV-1 rabbit retinitis treatment study; format: in vivo; settings: intravitreal drug after induction of retinitis; for thickness of the retina (histology): 5% dextrose eyes 46 μm, P<0.05
Procedure: (§1) For the pharmacokinetic studies, the highest non toxic dose from the results of the toxicity studies, 100 μg/eye, was intravitreally injected into 24 eyes of 16 rabbits, and the remaining 8 eyes were injected with the same volume of 5% dextrose as control. Two animals, 3 eyes with drug and 1 eye with 5% dextrose, were used at each time point. The time points used were post-injections on day 1, day 3, week 1, week 2, week 3, week 5, week 8, and week 10. After animal sacrifice, globes were enucleated and kept on ice before freezing and dissecting. The globes were then submerged in −40 C.° 2-methylbutane in a beaker sitting in a dry ice ethanol bath for 30 seconds. The frozen globe was cut into two halves through the optic nerve and further dissected under a surgical microscope to separate the vitreous and retina. These different tissues from the same eyes were separately stored in the pre-weighed and pre-labeled glass vials. The vials were kept in −70 C for HPLC analysis. 3. HSV-1 rabbit retinitis treatment study of HDP-cCDV: For the retinitis intervention study, 72 rabbits were used, including 14 rabbits for the treatment study and 58 for the pretreatment study. Only the right eye of each rabbit was used. Ophthalmoscopic retinitis grading was performed using a previously reported method with a standardized grading scheme.^7 For the treatment study, the right eyes of 14 rabbits were intravitreally injected with 0.06 mL of a 5×10^−5 dilution of 10^−7.6 mean tissue culture infective dose (TCID 50)/mL HSV-1. When retinitis developed and reached grade 1 (earliest detected retinitis grade: 1 or 2), 5 infected eyes received 100 micrograms of HDP-cCDV in 0.1 mL 5% dextrose, 4 infected eyes received an equivalent dose of free CDV, and the other 5 infected eyes received 5% dextrose. For the pretreatment study, 100 μg/eye was tested. 58 rabbits were divided into four groups: the 21 day, 42 day, 68 day, and 98 day groups. 15 rabbits were used for each time point of the pretreatment study (except 13 rabbits were used for the 98 day time point). At each time point 5 rabbits received 100 micrograms (in 0.1 ml 5% dextrose) of HDP-cCDV, 5 rabbits received an equivalent dose of CDV, and 5 rabbits received 5% dextrose (for the 98 day pre-treatment only 3 rabbits were used for HDP-cCDV). The HSV-1 virus dose, injection method, and clinical retinitis grading were done as previously described.^2,7 Rabbits were killed 2 weeks after development of retinitis. Retinitis was graded on day 3, 5, 7, 9, 11, 14. Rabbits without retinitis 3 or 4 weeks after HSV-1 inoculation were sacrificed.
4. Histologic evaluation of retinal damage and choroidal inflammation for the rabbit eyes in the treatment group. […] Thickness was measured with a reticule installed in the eyepiece of the microscope. […]

[3] = test system: HSV-1; experiment: HSV-1 rabbit retinitis pretreatment study; format: in vivo; settings: for rabbits that developed retinitis: 3-week pretreatment, 100 μg/eye or equivalent dose
Procedure: as §1
For the 3-week pretreatment study, all five rabbits that received intravitreal injection of 5% dextrose developed typical retinitis. In contrast, none of the rabbits that received the intravitreal injection of HDP-cCDV or CDV developed retinitis (Table 1). For the 47-day pretreatment, at day 7 after virus inoculation all control eyes developed retinitis with a median grade of 4. […] In contrast, out of 5 rabbits that received HDP-cCDV pretreatment, only 2 developed grade 2 retinitis. There is a significant difference in retinitis scores between HDP-cCDV pretreated eyes and CDV pretreated eyes or control eyes (p<0.05, Nonparametric Tukey-type tests). […] The other two groups (10 eyes) with dextrose or CDV pretreatment all had grade 4 retinitis. The difference in retinitis scores among the three groups was very significant (P=0.0046, Kruskal-Wallis Tests) (Table 1). For the 100-day pretreatment study, one of four rabbits in the HDP-cCDV pretreated group died before virus inoculation. […] The HDP-cCDV pretreated group had lower retinitis scores than the retinitis scores in the dextrose pretreated group (P<0.05, Nonparametric Tukey-type tests).

[4] = test system: HSV-1; settings: single intravitreal injection; cited from earlier work
[5] = HDP-P-Ara G intravitreal toxicity
[6] = test system: laser induced rat CNV; experiment: Prophylactic treatment of laser induced rat CNV (fluorescein angiograph); format: in vivo
Description: The retina was normal elsewhere.
Ara-G has been used as an antiproliferative agent to treat human leukemia and lymphoma.^11,12 Ara-G can cause apoptosis of fast growing cells by incorporating into the cell's DNA to inhibit the proliferation.^13 Normal cells in the retina are differentiated cell populations and are not sensitive to Ara-G. In contrast, abnormal proliferating cells in proliferative vitreoretinopathy experience vigorous DNA synthesis and are sensitive to Ara-G. The lipid prodrug of Ara-G was chosen to be useful to treat proliferative vitreoretinopathy or other intraocular proliferating disorders. […] No intraocular drug toxicity was observed except for the local retina contact induced retinal toxicity from the high dose injections. It was hypothesized that the local retinal toxicity could be eliminated by using small crystalline particles, especially when used in a human eye with a much larger vitreous volume than rabbit (4 ml in human eye versus 1.4 ml in rabbit eye). To quickly gather the therapeutic data of this new compound on proliferation, 3 μg of HDP-P-Ara G (equivalent to 75 μg in the rabbit eye [(25+125)/2]) was injected into the right eye of each rat 3 days before induction of CNV by laser. The drug led to a 39% reduction of leaking laser burns in this CNV rat model (39% versus 66%, p=0.009). […] HDP-P-Ara G could be useful for prevention or treatment of the devastating sight-threatening eye disease, age related macular degeneration.

[7] = previously determined; cited from earlier work
[8] = Intravitreal toxicity of HDP-cCDV; format: in vivo, rabbit
Procedure: All procedures were adherent to the ARVO Statement for the Use of Animals in Ophthalmic and Vision Research Intravitreal pharmacokinetics of small particle formulation of HDP-P-GCV: Three rabbits received 8.85 μmoles of the drug in their right eyes and 2.8 μmoles in the left eye. 2.8 μmole was previously determined to be non toxic.^2 Vitreous sampling was performed on both eyes of each rabbit at post injection week 1, week 2, week 3, week 5, week 8, week 12, and week 15. 50 to 100 μl of vitreous fluid was aspirated and placed in a pre-weighed vial for HPLC analysis of HDP-P-GCV levels as described before. 2. Intravitreal toxicity and pharmacokinetics of HDP-cCDV: For toxicity studies, five doses (10 μg or 0.018 μmole, 55 μg or 0.1 μmole, 100 μg or 0.18 μmole, 550 μg or 1.01 μmole, 1000 μg or 1.84 μmole in 50 μl of 5% dextrose) were tested in 8 rabbits, 16 eyes for 8 weeks. One eye of each animal was injected with drug and the fellow eye was injected with 5% dextrose as the control. Before drug injection, baseline IOP and fundus examination were documented. Drug or 5% dextrose was intravitreally injected into vitreous cavity as previously described.^2 After injection, eyes were monitored with a hand held tonometer (Tonopen, Medtronic, Jacksonville, Fla.), slit-lamp, and indirect ophthalmoscope at day 3, week 1, week 2, week 3, week 5, and week 8. […]

[9] = Laser light scattering particle size analysis; format: physicochemical; settings: dry powder, laser diffraction
Procedure: Unmodified HDP-P-GCV and microfluidized HDP-P-GCV were subjected to laser light scattering particle size analysis at Cirrus Pharmaceuticals, Inc., Durham, N.C. Measurements were performed using a HELOS laser diffraction instrument (Sympatec, Lawrenceville, N.J.), equipped with a R3 lens (0.5 to 175 microns).
For each measurement, approximately 100 mg of dry sample was dispersed at a feed rate of 75% using the VIBRI and RODOS attachments set at a main pressure of 4.0 bar and aventury pressure of 100 mbar. The triggering conditions were set to start measurement when channel 25 e 1% and stop when channel 25 d 0.5%. Data were analyzed using the Fraunhoffer method by mean of the WINDOX 3.2 release 4 software. HDP-cCDV: cCDV was prepared from CDV as described previously^3 except that the compound was isolated as the dicyclohexyl-morpholinocarboxamidine salt. The scheme of the synthesis is illustrated in FIG. 1. The purity (greater than 98%) of these compounds used in this study was confirmed by thin layer chromatography, nuclear magnetic resonance spectroscopy, and mass spectroscopy as reported previously.^4,5
An aqueous slurry of HDP-P-GCV was subjected to five consecutive cycles of microfluidization. […] Finally, an untreated formulation of HDP-cCDV powder (Panel C) was also analyzed.

[10] = rabbit, in vivo, 100 ug
Procedure: For the pharmacokinetic studies, the highest non toxic dose from the results of the toxicity studies, 100 μg/eye, was intravitreally injected into 24 eyes of 16 rabbits, and the remaining 8 eyes were injected with the same volume of 5% dextrose as control. Two animals, 3 eyes with drug and 1 eye with 5% dextrose, were used at each time point. The time points used were post-injections on day 1, day 3, week 1, week 2, week 3, week 5, week 8, and week 10. After animal sacrifice, globes were enucleated and kept on ice before freezing and dissecting. The globes were then submerged in −40 C.° 2-methylbutane in a beaker sitting in a dry ice ethanol bath for 30 seconds. The frozen globe was cut into two halves through the optic nerve and further dissected under a surgical microscope to separate the vitreous and retina. These different tissues from the same eyes were separately stored in the pre-weighed and pre-labeled glass vials. The vials were kept in −70 C for HPLC analysis. 3. […] When retinitis developed and reached grade 1 (earliest detected retinitis grade: 1 or 2), 5 infected eyes received 100 micrograms of HDP-cCDV in 0.1 mL 5% dextrose, 4 infected eyes received an equivalent dose of free CDV, and the other 5 infected eyes received 5% dextrose. […]

[11] = 47-day pretreatment, day 7 after virus inoculation
[12] = 68-day pretreatment, day 14 following virus inoculation

Compound: Nc1ccn(C[C@@H](CO)OCP(=O)(O)O)c(=O)n1 [CDV, cidofovir, reference compound]
- vitreous half-life [1]: 20 h
- vitreous cloudiness [2]: noticeably less severe than the control eyes
- thickness of the retina (histology) [2]: 95 μm
- rabbits that developed retinitis [3]: none
- median retinitis grade [3, 11]: 3
- rabbits that developed retinitis (out of 5) [3, 11]: all developed retinitis
- retinitis grade [3, 12]: 4

Compound: Nc1nc(O)c2ncn(COC(CO)CO)c2n1 [GCV, ganciclovir, reference compound]
- duration of prevention of HSV-1 viral infection of retina [4]: less than one-week protection

Compound: CCCCCCCCCCCCCCCCOCCCOP(=O)(O)OCC1OC(n2cnc3c(=O)[nH]c(N)nc32)C(O)C1O (stereo not shown) [HDP-P-Ara G, 1-O-hexadecyloxypropyl-phospho-arabinofuranosylguanosine]
- pathology study ([5]; 25 μg intravitreal injections): no toxicity
- pathology study ([5]; 125 μg intravitreal injections): localized retinal structural disturbance and proliferation or hypertrophy of retinal pigment epithelium
- ERGs ([5]; all eyes including the ones with local retinal toxicity): normal
- clinical toxicity observation ([5]; high dose (125 μg/eye), where drug depot touched the retina): local retinal toxicity that presented as a local retinal disturbance of fundus pigmentation; also recorded: local retinal depigmentation area
- time drug depot was observable ([5]; low dose (25 μg/eye)): 2 weeks
- retinal toxicity in the rat eyes ([6]; 3 μg intravitreal): did not cause any retinal toxicity
- reduction of CNV formation (leaking laser burns) ([6]; 3 μg intravitreal 3 days before laser, versus control eyes): 39%
- burns actively leaking in treated eyes ([6]; 3 μg intravitreal 3 days before laser, control eyes 66%, p=0.009): 40% and 39%

Compound: CCCCCCCCCCCCCCCCOCCCOP(=O)(O)OCC(CO)OCn1cnc2c(=O)[nH]c(N)nc21 (stereo not shown) [HDP-P-GCV, Hexadecylpropanediol-3-phospho-ganciclovir]
- non toxic intravitreal dose [7]: 2.8 µmol
- duration of prevention of HSV-1 viral infection of retina [4]: 20 weeks

Compound: CCCCCCCCCCCCCCCCOCCCOP1(=O)COC(Cn2ccc(N)nc2=O)CO1 (stereo not shown) [HDP-cCDV, 1-O-hexadecyloxypropyl-cyclic-cidofovir]
- vitreous cloudiness [2]: noticeably less severe than the control eyes
- thickness of the retina (histology) [2]: 80 μm
- toxicity findings ([8]; 550 μg/eye and 1000 μg doses, one eye each): local cataract and mild iritis in two eyes
- highest non-toxic dose ([8]; intravitreal injection, 8 weeks observation): 100 μg/eye
- volume median diameter (×50) [9]: 8.9 microns
- estimated vitreous half-life [10]: 151 h
- rabbits that developed retinitis [3]: none
- rabbits that developed retinitis (out of 5) [3, 11]: 2
- retinitis grade of the rabbits that developed retinitis [3, 11]: 2
- retinitis outcome [3, 12]: only two rabbits developed grade 3 and grade 4 retinitis, the other three rabbits had complete protection
- retinitis outcome ([3]; 100-day pretreatment, three rabbits, day 9): one did not develop retinitis, and the other two had grade 3 retinitis
- duration of pharmacologic effect against HSV-1 infection of the rabbit retina ([3]; single intravitreal pretreatment 100 μg/eye): at least 100 days

Compound: Nc1ccn(C[C@H]2COP(=O)(O)CO2)c(=O)n1 [cCDV, cyclic cidofovir]
- vitreous half-life [1]: 10 h
